Biological target: eel acetylcholinesterase (AChE) (Electrophorus electricus, UniProt O42275)
Experiment: Eel AChE fluorescence assay (AMPLEX Red kit)
Assay type: biochemical
Description: Enzymatic reactions consisted of 50 μM acetylcholine, 200 μM AIVIPLEX™ Red reagent, 1 U/mL horseradish peroxidase, 0.1 U/mL choline oxidase and 0.096 U/mL acetylcholinesterase, with 30 1% DMSO. […] Control reactions lacking acetylcholinesterase but containing 5 μM H2O2 in presence of compounds were analyzed at the same wavelength to exclude compounds that display assay interference. Dose-response curves were performed in duplicate.

eel acetylcholinesterase (AChE), sequence (O42275 24-633): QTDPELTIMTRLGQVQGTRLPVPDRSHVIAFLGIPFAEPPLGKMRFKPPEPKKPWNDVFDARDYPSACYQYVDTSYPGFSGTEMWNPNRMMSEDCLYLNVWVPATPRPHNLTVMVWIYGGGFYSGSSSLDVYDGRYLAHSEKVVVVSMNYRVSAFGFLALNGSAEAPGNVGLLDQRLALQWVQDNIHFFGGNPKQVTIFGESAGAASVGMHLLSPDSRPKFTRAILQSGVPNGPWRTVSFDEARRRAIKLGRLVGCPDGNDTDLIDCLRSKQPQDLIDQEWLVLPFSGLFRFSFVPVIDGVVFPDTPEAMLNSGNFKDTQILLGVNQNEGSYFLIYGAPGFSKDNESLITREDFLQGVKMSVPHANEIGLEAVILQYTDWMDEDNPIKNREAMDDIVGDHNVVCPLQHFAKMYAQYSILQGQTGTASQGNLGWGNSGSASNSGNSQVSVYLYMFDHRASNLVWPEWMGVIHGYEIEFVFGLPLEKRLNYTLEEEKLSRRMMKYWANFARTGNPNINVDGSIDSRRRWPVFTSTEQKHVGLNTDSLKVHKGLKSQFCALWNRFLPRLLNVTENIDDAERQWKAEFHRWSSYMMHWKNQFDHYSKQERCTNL

agelasine
assay interference test versus enzyme-free H2O2 reaction (parallel dose-response with 5 μM H2O2): likely represent true inhibition of the enzyme | Hill slope, eel AChE dose-response (sixteen-point serial dilution, four-parameter fit): 0.79
